Measured values from US20120264735A1 (priority 2009, published 2012).
pIC50: −log10 of the molar value.

Target: T1, c-Met kinase (recombinant c-Met) (Homo sapiens, UniProt P08581)
T1 construct: 0.27 nM recombinant c-Met
Assay: In vitro kinase assay I (homogeneous time-resolved fluorescence tyrosine kinase assay)
Assay type: biochemical
Outline: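 Biotinylated peptide (0.5 μM) phosphorylated by 0.2 nM recombinant c-Met with 50 μM MgATP, 60 min at room temperature, pH 7.4, 5% DMSO. EDTA stop; HTRF read with Eu-anti-phosphotyrosine antibody and streptavidin-APC. IC50 from 4-parameter logistic fit.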

T1 sequence (P08581 25-1390): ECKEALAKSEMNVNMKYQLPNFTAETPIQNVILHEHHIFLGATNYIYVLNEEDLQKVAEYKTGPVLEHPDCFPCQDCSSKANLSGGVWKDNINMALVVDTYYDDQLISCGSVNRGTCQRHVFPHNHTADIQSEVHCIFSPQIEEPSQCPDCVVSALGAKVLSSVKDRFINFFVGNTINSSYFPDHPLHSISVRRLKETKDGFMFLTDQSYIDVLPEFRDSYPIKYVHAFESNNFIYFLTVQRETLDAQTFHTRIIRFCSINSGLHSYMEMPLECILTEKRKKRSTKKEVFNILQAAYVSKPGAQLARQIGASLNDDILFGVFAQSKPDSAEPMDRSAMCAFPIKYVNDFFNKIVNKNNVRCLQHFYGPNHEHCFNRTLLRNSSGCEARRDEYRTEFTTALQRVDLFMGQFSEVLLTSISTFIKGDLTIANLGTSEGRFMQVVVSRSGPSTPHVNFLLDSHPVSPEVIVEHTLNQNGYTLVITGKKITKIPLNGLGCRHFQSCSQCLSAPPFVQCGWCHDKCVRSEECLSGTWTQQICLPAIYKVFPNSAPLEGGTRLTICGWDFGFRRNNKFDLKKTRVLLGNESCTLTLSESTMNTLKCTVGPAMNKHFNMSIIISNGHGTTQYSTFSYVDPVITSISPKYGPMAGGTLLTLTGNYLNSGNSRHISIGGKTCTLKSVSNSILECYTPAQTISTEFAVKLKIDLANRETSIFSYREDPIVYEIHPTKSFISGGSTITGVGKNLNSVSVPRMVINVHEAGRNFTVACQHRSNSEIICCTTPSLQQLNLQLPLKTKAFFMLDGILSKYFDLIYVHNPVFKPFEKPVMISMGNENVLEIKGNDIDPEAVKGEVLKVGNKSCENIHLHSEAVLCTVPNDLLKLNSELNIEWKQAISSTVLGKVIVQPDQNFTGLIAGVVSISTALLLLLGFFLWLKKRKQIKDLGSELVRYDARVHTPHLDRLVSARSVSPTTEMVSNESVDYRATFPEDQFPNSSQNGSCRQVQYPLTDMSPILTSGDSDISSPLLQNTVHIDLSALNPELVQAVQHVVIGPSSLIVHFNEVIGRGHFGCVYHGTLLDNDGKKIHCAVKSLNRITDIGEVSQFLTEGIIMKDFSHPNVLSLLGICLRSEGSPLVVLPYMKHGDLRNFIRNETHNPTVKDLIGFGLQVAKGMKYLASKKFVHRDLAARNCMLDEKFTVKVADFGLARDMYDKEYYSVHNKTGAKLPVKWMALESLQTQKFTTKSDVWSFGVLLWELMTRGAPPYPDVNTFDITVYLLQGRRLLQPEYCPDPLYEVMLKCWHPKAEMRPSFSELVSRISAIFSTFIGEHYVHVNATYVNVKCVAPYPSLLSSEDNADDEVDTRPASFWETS

Row | SMILES | pIC50
1 | CC(C)COC(=O)Nc1cccc(Cc2nn(-c3cnn(CCCC(=O)N(C)C)c3)ccc2=O)c1 [Example 696, 2-Methylpropyl {3-[(1-{1-[4-(dimethylamino)-4-oxobutyl]-1H-pyrazol-4-yl}-4-oxo-1,4-dihydropyridazin-3-yl)methyl]phenyl}carbamate] | > 7.00
2 | CNC(=O)CCCn1cc(-n2ccc(=O)c(Cc3cccc(NC(=O)OCC(C)C)c3)n2)cn1 [Example 697, 2-methylpropyl {3-[(1-{1-[4-(methylamino)-4-oxobutyl]-1H-pyrazol-4-yl}-4-oxo-1,4-dihydropyridazin-3-yl)methyl]phenyl} carbamate] | > 7.00
3 | CC(C)COC(=O)Nc1cccc(Cc2nn(-c3cnn(CCCC(=O)N4CCOCC4)c3)ccc2=O)c1 [Example 698, 2-methylpropyl [3-({1-[1-(4-morpholin-4-yl-4-oxobutyl)-1H-pyrazol-4-yl]-4-foundoxo-1,4-dihydropyridazin-3-yl}methyl)phenyl] carbamate] | > 7.00
4 | CC(C)COC(=O)Nc1cccc(Cc2nn(-c3cnn(CCCC(=O)N4CCCCC4)c3)ccc2=O)c1 [Example 699, 2-methylpropyl [3-({4-oxo-1-[1-(4-oxo-4-piperidin-1-ylbutyl)-1H-pyrazol-4-yl]-1,4-dihydropyridazin-3-yl}methyl)phenyl] carbamate] | > 7.00
5 | CC(C)COC(=O)Nc1cccc(Cc2nn(-c3cnn(CCCC(=O)N4CCCC4)c3)ccc2=O)c1 [Example 700, 2-methylpropyl [3-({4-oxo-1-[1-(4-oxo-4-pyrrolidin-1-ylbutyl)-1H-pyrazol-4-yl]-1,4-dihydropyridazin-3-yl}methyl)phenyl] carbamate] | > 7.00
6 | CC(C)COC(=O)Nc1cccc(Cc2nn(-c3cnn(CCCC(=O)NC4COC4)c3)ccc2=O)c1 [Example 701, 2-methylpropyl {3-[(1-{1-[4-(oxetan-3-ylamino)-4-oxobutyl]-1H-pyrazol-4-yl}-4-oxo-1,4-dihydropyridazin-3-yl)methyl]phenyl} carbamate] | > 7.00
7 | CNC(=O)CCn1cc(-n2ccc(=O)c(Cc3cccc(NC(=O)OCC(C)C)c3)n2)cn1 [Example 702, 2-methylpropyl {3-[(1-{1-[3-(methylamino)-3-oxopropyl]-1H-pyrazol-4-yl}-4-oxo-1,4-dihydropyridazin-3-yl)methyl]phenyl} carbamate] | > 7.00
8 | CC(C)COC(=O)Nc1cccc(Cc2nn(-c3cnn(CCC(=O)N4CCOCC4)c3)ccc2=O)c1 [Example 703, 2-methylpropyl [3-({1-[1-(3-morpholin-4-yl-3-oxopropyl-1H-pyrazol-4-yl]-4-oxo-1,4-dihydropyridazin-3-yl}methyl)phenyl] carbamate] | > 7.00
9 | CC(C)COC(=O)Nc1cccc(Cc2nn(-c3cnn(CCC(=O)NC4COC4)c3)ccc2=O)c1 [Example 704, 2-methylpropyl {3-[(1-{1-[3-(oxetan-3-ylamino)-3-oxopropyl]-1H-pyrazol-4-yl}-4-oxo-1,4-dihydropyridazin-3-yl)methyl]phenyl} carbamate] | > 7.00
10 | CC(C)COC(=O)Nc1cccc(Cc2nn(-c3cnn(CCCC(=O)NCC(C)(C)O)c3)ccc2=O)c1 [Example 705, 2-methylpropyl (3-{[1-(1-{4-[(2-hydroxy-2-methylpropyl)amino]-4-oxobutyl}-1H-pyrazol-4-yl)-4-oxo-1,4-dihydropyridazin-3-yl]methyl}phenyl) carbamate] | > 7.00
11 | Cn1cc(-n2ccc(=O)c(Cc3cccc(-c4ncn(C5COC5)n4)c3)n2)cn1 [Example 707, 1-(1-Methyl-1H-pyrazol-4-yl)-3-{3-[1-(oxetan-3-yl)-1H-1,2,4-triazol-3-yl]benzyl}pyridazin-4(1H)-one] | 6.00 to 7.00
12 | CCn1cnc(-c2cccc(Cc3nn(-c4cnn(C)c4)ccc3=O)c2)n1 [Example 708, 3-[3-(1-ethyl-1H-1,2,4-triazol-3-yl)benzyl]-1-(1-methyl-1H-pyrazol-4-yl)pyridazin-4(1H)-one] | > 7.00
